# Source: ChEMBL document CHEMBL5244217, “β-Carboline alkaloid monomers and dimers: Occurrence, structural diversity, and biological activities” (Eur J Med Chem, 2018)
# Columns and labels:
# [1] = system: dengue virus type 2; assay: Antiviral activity against DENV-2 strain New Guinea C infected in Vero cells assessed as reduction in virus yield measured after 48 hrs; format: functional, organism-based
# [2] = system: Cryptococcus neoformans; assay: Antimicrobial activity against Cryptococcus neoformans; format: functional
# [3] = system: Staphylococcus aureus; assay: Antimicrobial activity against Staphylococcus aureus; format: functional
# [4] = system: Candida albicans; assay: Antimicrobial activity against Candida albicans; format: functional
# [5] = system: Micrococcus luteus; assay: Antibacterial activity against Sarcina lutea; format: functional
# [6] = system: HL-60; assay: Cytotoxicity against human HL-60 cells; format: functional, cell-based
# [7] = system: KB; assay: Cytotoxicity against human KB cells; format: functional; details: read-out: ED50 (the source's name)
# [8] = system: MDA-MB-231; assay: Cytotoxicity against human MDA-MB-231 cells; format: functional, cell-based
# [9] = system: Human immunodeficiency virus 1; assay: Antiviral activity against HIV1 IIIB infected in human C8166 cells assessed as reduction in virus-induced cytopathic effect measured after 3 days by Syncytia assays; format: functional, organism-based; details: Human immunodeficiency virus 1, IIIB, C8166, 72 h
# [10] = system: Human immunodeficiency virus 1; assay: Antiviral activity against HIV1; format: functional, organism-based
# [11] = system: Corynebacterium xerosis; assay: Antibacterial activity against Corynebacterium xerosis; format: functional
# [12] = system: Bacillus subtilis; assay: Antibacterial activity against Bacillus subtilis; format: functional
# [13] = biological target: Alpha-glucosidase (Saccharomyces cerevisiae S288c, UniProt P53341+P38158+P07265); assay: Inhibition of Saccharomyces cerevisiae alpha-glucosidase activity using pNPG as substrate; format: protein assay
# [14] = system: Plasmodium falciparum; assay: Antimalarial activity against Plasmodium falciparum; format: functional, organism-based
# [15] = system: Trypanosoma brucei brucei; assay: Antitrypanosomal activity against Trypanosoma brucei brucei; format: functional, organism-based
# [16] = Selectivity index, ratio of IC50 for cytotoxicity against rat L6 cells to IC50 for Antimalarial activity against Plasmodium falciparum K1 strain; format: toxicity, cell-based; details: read-out: Selectivity Index
# [17] = system: Plasmodium falciparum; assay: Antimalarial activity against Plasmodium falciparum K1 strain; format: functional, organism-based
# [18] = system: Mycolicibacterium smegmatis; assay: Antibacterial activity against Mycolicibacterium smegmatis MC2 2700; format: functional
# [19] = system: Mycolicibacterium smegmatis; assay: Antibacterial activity against Mycobacterium smegmatis ATCC 14468; format: functional
# [20] = system: Staphylococcus aureus; assay: Antibacterial activity against Staphylococcus aureus EMRSA-15; format: functional
# [21] = system: Staphylococcus aureus; assay: Antibacterial activity against Staphylococcus aureus 1199B; format: functional
# [22] = system: Mycolicibacterium phlei; assay: Antibacterial activity against Mycolicibacterium phlei ATCC 11758; format: functional
# [23] = system: Staphylococcus aureus; assay: Antibacterial activity against Staphylococcus aureus XU212; format: functional
# [24] = system: Mycolicibacterium fortuitum; assay: Antibacterial activity against Mycobacterium fortuitum ATCC 6841; format: functional
compound,measurement,setting,value
COc1ccc2c3ccnc(C)c3n(C)c2c1,EC50,[1],3200 nM
CSc1c(C2=C(c3c[nH]c4ccc(O)cc34)C(=O)N3c4ccc(O)cc4C4C=C(C(=O)O)N=C2C43)n(C)c[n+]1C (centres undefined),MIC,[2],8 µg/mL
same,MIC,[3],8 µg/mL
same,MIC,[4],8 µg/mL
Oc1cccc2c1[nH]c1c(C3=C[C@@]4(O)CC/C=C\CCCCN5CC[C@@H]3[C@]3(C[C@@H]6/C=C\CCCCN6[C@H]34)C5)nccc12,MIC,[5],0.91 µg/mL
COc1ccc2c3c([nH]c2c1)[C@]12CC(C)(C)[C@@]4(C(=O)N1CC3)c1[nH]c3cc(OC)ccc3c1CCN24,IC50,[6],5800 nM
Oc1cccc2c3c([nH]c12)C(C1=C[C@@]2(O)CC/C=C\CCCCN4CC[C@@H]1[C@]1(C[C@@H]5/C=C\CCCCN5[C@H]12)C4)=NCC3,MIC,[5],4 µg/mL
CC(C)CC(N)c1nccc2c1[nH]c1cc(Br)ccc12 (centres undefined) [EUDISTALBIN A],EC50,[7],< 3.2 µg/mL
same,IC50,[8],2100 nM
NC(=O)c1cc2c([nH]c3ccccc32)c(-c2ccc(CO)o2)n1,EC50,[9],380 nM
Oc1ccc2[nH]c3c(C4=C[C@@]5(O)CC/C=C\CCCCN6CC[C@@H]4[C@@]4(C6)C[C@@]67CCC(CCCN6[C@H]45)O7)nccc3c2c1,IC50,[10],2300 nM
O[C@]12C=C(c3nccc4c3[nH]c3ccccc34)[C@@H]3CCN(CCCC/C=C\CC1)C[C@@]31C[C@@H]3/C=C\CCCCN3[C@H]12 [MANZAMINE A],IC50,[10],4200 nM
O[C@H]1[C@H]2[C@@H]3c4[nH]c5ccccc5c4CCN3CN3CCCC/C=C\CC[C@@]45CN(CCCC/C=C\CC[C@@]1(O)[C@H]34)CC[C@@H]25,MIC,[5],2.8 µg/mL
same,MIC,[11],5.7 µg/mL
same,MIC,[12],2.8 µg/mL
O=C(CO)CCC(=O)c1nc(C(=O)O)cc2c1[nH]c1ccccc12,IC50,[13],63.3 µg/mL
O[C@]12C=C(C3c4[nH]c5ccccc5c4CCN3CCc3nccc4c3[nH]c3ccccc34)[C@@H]3CCN(CCCC/C=C\CC1)C[C@@]31C[C@@H]3/C=C\CCCCN3[C@H]12 (some centres undefined),IC50,[14],0.58 µg/mL
same,IC50,[15],0.27 µg/mL
C[n+]1ccc2c(c1)[nH]c1ccc(Cl)cc12 [NOSTOCARBOLINE],selectivity ratio,[16],2500
same,IC50,[17],18 nM
N=C(N)NCCC[C@H]1NCCc2c1[nH]c1cc(Br)ccc21,MIC,[18],2 µg/mL
same,MIC,[19],16 µg/mL
same,MIC,[20],64 µg/mL
same,MIC,[21],16 µg/mL
same,MIC,[22],8 µg/mL
same,MIC,[23],8 µg/mL
same,MIC,[24],16 µg/mL
CSc1c(C2=C(c3c[nH]c4ccc(O)cc34)C(=O)N3c4ccc(O)cc4C4C=CN=C2C43)n(C)c[n+]1C (centres undefined),MIC,[2],4 µg/mL
same,MIC,[3],4 µg/mL
same,MIC,[4],4 µg/mL
O=C(O)c1cc2c([nH]c3ccccc32)c(-c2ccc(CO)o2)n1 [FLAZINE],IC50,[9],2370 nM
O=c1ccc2nccc3c4ccccc4n1c23 [CANTHIN-6-ONE],MIC,[18],8 µg/mL
same,MIC,[19],8 µg/mL
same,MIC,[20],32 µg/mL
same,MIC,[21],8 µg/mL
same,MIC,[22],8 µg/mL
same,MIC,[23],8 µg/mL
same,MIC,[24],16 µg/mL
Oc1ccc2[nH]c3c(C4=C[C@@]5(O)CC/C=C\CCCCN6CC[C@@H]4[C@]4(C[C@@H]7/C=C\CCCCN7[C@H]45)C6)nccc3c2c1 [MANZAMINE Y],MIC,[5],0.25 µg/mL
